Consider one substance from US4414205A, “Cell growth inhibitory substances” (University Patents, Inc., priority 1981, dated 1983).

The subject of one test is P388 leukemia. The test is described as follows: Mouse tumor system P388 leukemia (murine P388 lymphocytic leukemia). It is filed as in vivo. The method, then:
(§1) A description of the antitumor tests, described herein, appears in the reference by R. I. Geran, N. H. Greenberg, M. M. MacDonald, A. M. Schumacher and B. J. Abbott, Cancer Chemother. Rep. Part 3, Vol. 3(2): 1-103 (1972).
(§2) ^a tumors were inoculated intraperitoneally (i.p.)
(§3) ^b compounds were administered i.p. everyday for 9 days starting on
(§4) the first day after tumor inoculation.
(§5) ^c Calculated from median survival times; Nos. in parentheses = No. o
(§6) cures/total No. of mice in group. Cured mice survive for at least 60 days

Another test deals with B16 melanoma. Briefly: Mouse tumor system B16 melanoma (NCI murine B16 melanoma test). The class given is in vivo. The method, then: as §1, §2, §3, §4, §5, §6

On to Dolastatin 1, for which the “life span in percent of controls” value is 188% of controls in the test on P388 leukemia (P388 leukemia inoculated i.p., compound i.p. every day for 9 days at optimal dose, from median survival times) and 240% of controls in the test on B16 melanoma (B16 melanoma inoculated i.p., compound i.p. every day for 9 days at optimal dose, from median survival times). In addition, the optimal dose in the test on P388 leukemia (P388 leukemia, i.p. every day for 9 days starting first day after tumor inoculation) is recorded as 11 μg/kg/injection; in the test with B16 melanoma (B16 melanoma, i.p. every day for 9 days starting first day after tumor inoculation) it was 11 μg/kg/injection. In the test on P388 leukemia (murine P388 lymphocytic leukemia, intraperitoneal doses of 11 μg/kg/day), this substance showed a life extension of 88%. For the same substance, in the test on B16 melanoma (B16 melanoma i.p., optimal dose i.p. daily for 9 days, cured mice survive at least 60 days), the “No. of cures/total No. of mice in group” value is reported as 3/10. Besides, in the test with B16 melanoma (murine B16 melanoma, intraperitoneal dose of 11 μg/kg/day), the curative response is 30%.
